Type in all cases: cell-based
One experiment has as its system FSCCL (WSU-FSCCL). The experiment in a line: CellTiter Glo viability assay after 96 h. To be noted: read-out: EC50, cell viability. Here is the method: (§1) Idelalisib resistance was established by continuous passaging of a clonal isolate of WSU-FSCCL in the presence of 1 μM idelalisib; clonal isolates from a passage-matched line (FSCCL^S) and idelalisib-resistant line (FSCCL^R) were generated through 2 rounds of single-cell-limiting dilution. Growth inhibition to idelalisib or other inhibitors was performed after 96 h using CellTiter Glo viability assay. Characterization of mutations and gene expression were identified by whole exome sequencing and RNA-Seq, respectively. Whole cell lysates were analyzed by western blots.

Another experiment concerns TMD8. The experiment in a line: CellTiter-Glo viability assay at 96 h (Example 5). To be noted: Homo sapiens. The procedure:
(§2) Growth inhibition to Idelalisib or other inhibitors was assessed using CellTiter-Glo viability assay at 96 h. […] Cell lines were analyzed by whole exome sequencing, RNASeq, and phosphoproteomics. Protein expression was measured using Simple Western and SDS/PAGE and western blot. Caspase 3/7 was measured using Caspase-Glo 3/7 assay; apoptosis was measured with Annexin V assay and propidium iodide by flow cytometry.
(§3) Cell viability EC50 was determined using a sigmoidal dose-response (variable slope) curve generated from quadruplicate samples. Statistical significance was determined using the student's t-test for cell viability and two-tailed paired t-test for apoptosis experiments in Prism (GraphPad).

In the next experiment the test system is FSCCL^S. The experiment in a line: CellTiter Glo viability assay after 96 h. To be noted: read-out: EC50. Here is the method:
as §1

Experiment [1] has as its system FSCCL^R clone 3 (PI3KCA P539R). Put plainly: CellTiter Glo viability assay after 96 h. The procedure: as §1
Experiment [2] relates to FSCCL^R clone 1 (PI3KCA E970K). The experiment in a line: CellTiter Glo viability assay after 96 h. Here is the method:
as §1

Experiment [3] has as its system FSCCL^R clone 2 (PI3KCA N345K). The experiment in a line: CellTiter Glo viability assay after 96 h. The procedure:
as §1

In the next experiment the test system is FSCCL^R SFK^HIGH. The experiment in a line: CellTiter Glo viability assay after 96 h. Here is the method: as §1
Experiment [4] deals with TMD8^R (Idelalisib-resistant line). The experiment in a line: CellTiter-Glo viability assay at 96 h. Particulars: read-out: EC50, cell viability. Here is the method: as §2, §3
(§4) Idelalisib-resistant (TMD8^R) cell line and passage-matched Idelalisib-sensitive (TMD8^S) cell line were generated according to the procedure described in Example 5 above. To characterize the resistant cells, cell viability assays, RNASeq of multidrug resistance (MDR) family of ABC transporter genes (N=33), apoptosis assays, and phosphoprotein analysis were performed. Cell viability was measured using CellTiter-Glo, as described in Example 1A above. Western blot and protein level analysis were performed after treatment with 420 nM idelalisib, 320 nM Compound B and combination thereof, using Peggy Sue (ProteinSimple) automated Western Blot system. Protein concentration (pg/μL) was quantitated using recombinant protein standards. Normalized AUC were determined for each of the treatment groups, normalized to actin. Apoptosis was assessed by propidium iodide and Annexin V/FITC staining and measured by flow cytometry, as described in Example 1A above. Western Blot with anti-p-AKT (S473) antibody and Peggy Sue were used to determine the phosphorylation state of downstream signaling components.

The test system of experiment [5] is TMD8^S (DMSO passage matched, idelalisib-sensitive line). The experiment in a line: CellTiter-Glo viability assay at 96 h. Particulars: read-out: EC50, cell viability. The procedure:
as §2, §3, §4

Another experiment relates to TMD8^R cells. The experiment in a line: Apoptosis, Annexin V assay and propidium iodide by flow cytometry. To be noted: Annexin V at 48 h, Idelalisib=1 μM. The procedure:
as §2

In a further experiment the test system is Ri-1 cells. The experiment in a line: CellTiter-Glo cell viability assay, four days (Example 1A). Particulars: Ri-1; single agent. The procedure:
(§5) In vitro anti-proliferative activity of agents was assessed using CellTiter-Glo™ Assay (Promega), which quantifies cellular ATP level. Test compounds were dissolved in DMSO to prepare 10 mM stock solutions. […] For drug combination studies, a two or three fold horizontal serial dilution pattern was used for Compound B and combined with Idelalisib using a two, three, or four fold vertical serial dilution pattern. […] The final DMSO concentration in the test media was 0.2%. Each combination used replicates of four plates to generate sufficient data for evaluation of synergy scores. […] The assay growth medium for all lines was RPMI supplemented with 20% FBS and […] penicillin-streptomycin. Seeding density was optimized for growth rate over 96 hours for each cell line and was between 10,000-30,000 cells per well of 96 well plates. After four days incubation with agents at 37° C./5% CO2, the CellTiter-Glo™ assay was performed following the manufacturer's protocol. Relative luminescence units were quantified using a Biotek Synergy luminometer.
(§6) Data from a plate was excluded if either Z′<0.5 or the growth of the cell lines was less than one doubling in the four day assay period. Z′ was calculated using the formula: Z′=[1−((3(σstau+σDMSO))/(|μDMSO−μstau|)] where σstau and σDMSO are the standard deviation of the 100% inhibited staurosporine and 0% inhibited DMSO control wells, respectively. μDMSO and μstau are the mean of the […] control wells, respectively. The raw Cell Titer Glo signal was normalized according to the following formula: [(raw value)−(100% inhibited staurosporine control)]/[(DMSO control value)−(100% inhibited staurosporine control)].
(§7) EC50 was determined using GraphPad Prism or Dose Response software by fitting the data to a four parameters variable slope model. […] For combination studies, the EC50 at each test article concentration was determined from graphs of the EC50 of one compound at a fixed dose of second compound. The EC50 shift was calculated by taking the ratio of the EC50 of the single agent by the EC50 at the maximum dose of the second agent.
(§8) Synergy was analyzed using the MacSynergy II program, which calculates a theoretical additive value for the drug combination that is based on the values generated by each drug alone using the Bliss Independence mathematical model. The Bliss independence model assumes that each drug acts independently. The theoretical additive effect for each compound is calculated and then subtracted from the actual effect. Synergy is defined by greater than expected effects while antagonism is defined by less than expected effects. In this example, a synergy volume greater than 50 was considered significant. The EC50 values determined in drug combination studies represent a single experiment run in quadruplicate and therefore may differ slightly from the single agent EC50 values.

In another experiment the test system is TMD-8 cells. The experiment is described as above. To be noted: TMD-8; single agent. Here is the method:
as §5, §6, §7, §8

The subject of another experiment is OCI-LY10 cells. The description is as above. To be noted: OCI-LY10; single agent. Here is the method: as §5, §6, §7, §8
The mark [6] stands for this setting: read-out: EC50 BYL-719 (+IDELA 0.6 μm).
Setting [7] is: FIGS. 11A, 13A, printed with 1 μM of each named agent.

This is an account of results in patent publication US20180353512A1, “COMBINATION THERAPIES FOR TREATING B-CELL MALIGNANCIES” (GILEAD SCIENCES, INC., priority 2015, published 2018).

Structures are written as SMILES. Where two headings read alike, the source gives them in different places. A value given as a limit tells only on which side of the number the result lay.

Turning to `Cc1cc([C@@H](C)Nc2ccccc2C(=O)O)c2nc(N3CCOCC3)cc(=O)n2c1` [AZD-6482], the results for the EC50 with FSCCL (WSU-FSCCL) and with TMD8 were 4600 nM and 520 nM, respectively.
On to `Cc1nc(NC(=O)N2CCC[C@H]2C(N)=O)sc1-c1ccnc(C(C)(C)C(F)(F)F)c1` [BYL-719], for which the EC50 in the experiment with FSCCL^S (PI3KCA WT, Table 13, single agent) is 1610 nM; in experiment [1] (setting [6]), 239 nM; in [1] (single agent, read-out: EC50), > 3000 nM; in [2] (setting [6]), 123 nM; in experiment [2] (single agent, read-out: EC50) it was 2120 nM; in the experiment on FSCCL (WSU-FSCCL), > 10000 nM. For the same molecule, the half-maximal effective concentration (EC50) came to 143 nM in [3] (setting [6]); 1540 nM in experiment [3] (single agent, read-out: EC50); 1200 nM in the experiment on TMD8.
On to `Cc1nc(Nc2ncc(C(=O)Nc3c(C)cccc3Cl)s2)cc(N2CCN(CCO)CC2)n1` [Dasatinib], for which the EC50 in the experiment with FSCCL^S (Table 14, single agent) stood at 34 nM; in the experiment on FSCCL^R SFK^HIGH (read-out: EC50 Dasatinib (+IDELA 600 nM)), 15 nM; in the experiment on FSCCL^R SFK^HIGH (single agent, read-out: EC50 Dasatinib), 58 nM.
For the molecule `C[C@H](Nc1nc[nH]c2ncnc1-2)c1cc2cccc(Cl)c2c(=O)n1-c1ccccc1` [Duvelisib, 8-Chloro-2-phenyl-3-[(1S)-1-(3H-purin-6-ylamino)ethyl]-1(2H)-isoquinolinone], the EC50 in experiment [4] (TMD8^R, single agent) was > 4000 nM; in [5] (single agent), 580 nM.
For `c1cn2cc(-c3ccc4cn[nH]c4c3)nc(Nc3ccc(N4CCOCC4)cc3)c2n1` [ENTO], the EC50 was 1800 nM in the experiment on FSCCL^S (Table 15, single agent) and 1920 nM with FSCCL^R SFK^HIGH (read-out: EC50 ENTO (+IDELA 600 nM)).
The molecule `CS(=O)(=O)N1CCN(Cc2cc3nc(-c4cccc5[nH]ncc45)nc(N4CCOCC4)c3s2)CC1` [GDC-0941] had an EC50 in the experiment on TMD8 of 27 nM.
Turning to `CNc1nc(-c2ccc3c(N)n[nH]c3c2)cc(N2C[C@@H](C(=O)NC3CCCCC3)CC[C@H]2C)n1` [GSK-2334470], the apoptosis in the experiment with TMD8^R cells (GSK-2334470=1 μM, vehicle control 22%) is listed as 21%. In addition, in [4] (setting [7]), the half-maximal effective concentration (EC50) is < 10000 nM.
As to `C=CC(=O)N1CCC[C@@H](n2nc(-c3ccc(Oc4ccccc4)cc3)c3c(N)ncnc32)C1` [Ibrutinib, 1-[(3R)-3-[4-Amino-3-(4-phenoxyphenyl)-1H-pyrazolo[3,4-d]pyrimidin-1-yl]piperidin-1-yl]prop-2-en-1-one], the EC50 in experiment [5] (unit inferred) turned out to be 0.5 nM. The “growth of cell line” value in the experiment with Ri-1 cells, in the experiment with TMD-8 cells and in the experiment on OCI-LY10 cells was “inhibited the growth” in each case.
Regarding `NC1(c2ccc(-c3nc4ccn5c(=O)[nH]nc5c4cc3-c3ccccc3)cc2)CCC1` [MK-2206], the apoptosis in the experiment on TMD8^R cells (MK-2206=1 μM, vehicle control 24%) is 33%. Besides, the half-maximal effective concentration (EC50) in [4] (setting [7]) was < 10000 nM.
